Experimental data: patent US3955959A, “Herbicide for use in transplanted rice” (priority 1974, dated 1976)

Tests used:
[1] = tested on: Ek (Eleocharis kuroguwai); assay: Other tests, perennial control; assay type: in vivo
[2] = tested on: direct-seeded rice plants; conditions: 1.0 lb/ac and 0.25 lb/ac; '620 and '945 Table I; cited from earlier work
[3] = tested on: transplanted rice seedlings; assay: Example 6 rice seedling injury; assay type: in vivo
Method: (§1) In this example, the efficacy of Herbicide A is presented for a variety of weeds in the presence of ordinary and infant transplant rice. In this example, tests were conducted at the said JAAPR Lab at different times of the year. "Early season" transplants were made in April and "Normal season" transplants were made in July. The size of the transplants at the respective seasons were: Season Seedling Type Plant Height (cm) Leaf Stage ______________________________________ Early Ordinary 16.5 4.5 Early Infant 9.1 2.4 Normal Ordinary 41.7 5.3 Normal Infant 14.7 1.9 ______________________________________
(§2) Duplicate treatments were used. At the time of application of the herbicide, the status of the grass (EC) was as follows: […]

[4] = tested on: Ea (Eleocharis acicularis); assay: Example 6 weed control, JAAPR, Japan; assay type: in vivo
Method: as §1, §2

[5] = tested on: Ec (Echinochloa crusgalli); assay: Example 6 weed control, JAAPR, Japan; assay type: in vivo
Method: as §1, §2

Cd (Cyperus difformis) = assay: Example 6 weed control, JAAPR, Japan; assay type: in vivo
Method: as §1, §2

Sh (Scirpus hotarui) = assay: Example 6 weed control, JAAPR, Japan; assay type: in vivo; conditions: Normal season
Method: as §1, §2

[6] = tested on: Obw (other broadleaf weeds); assay: Example 6 weed control, JAAPR, Japan; assay type: in vivo; conditions: ordinary
Method: as §1, §2

carp = assay: Example 10 fish toxicity, Japanese protocol; assay type: in vivo
Method: In view of the importance of fish toxicological considerations, tests were conducted, using carp according to the Japanese protocol, to compare toxicity data for Herbicides A and B; results of those tests are shown in Table 10.

[7] = Early season, ordinary, 1.0 kg/ha, 3 DAT
[8] = Early season, ordinary, 1.0 kg/ha, 12 DAT
[9] = Early season, ordinary, 1.0 kg/ha, -2 DAT
[10] = Early season, ordinary, .5 kg/ha, 3 DAT
[11] = Early season, ordinary, .5 kg/ha, 12 DAT
[12] = Early season, ordinary, .5 kg/ha, -2 DAT
[13] = Normal season, infant, 1.0 kg/ha, 3 DAT
[14] = Normal season, infant, 1.0 kg/ha, 7 DAT
[15] = Normal season, infant, 1.0 kg/ha, -2 DAT
[16] = Normal season, infant, .5 kg/ha, 3 DAT
[17] = Normal season, infant, .5 kg/ha, 7 DAT
[18] = Normal season, infant, .5 kg/ha, -2 DAT
[19] = Normal season, ordinary, 1.0 kg/ha, 3 DAT
[20] = Normal season, ordinary, 1.0 kg/ha, 7 DAT
[21] = Normal season, ordinary, 1.0 kg/ha, -2 DAT
[22] = Normal season, ordinary, .5 kg/ha, 3 DAT
[23] = Normal season, ordinary, .5 kg/ha, 7 DAT
[24] = Normal season, ordinary, .5 kg/ha, -2 DAT

## CCCCOCN(C(=O)CCl)c1c(C)cccc1C(C)(C)C [Herbicide A, n-(butoxymethyl)-6'-tert-butyl-2-chloro-o-acetotoluidide]
[1]
  control of perennial Ek: fair to good
[2]
  phytotoxicity to direct-seeded rice: severe phytotoxicity
[3]; [7]
  Rice Seedling Injury (%): 5%
[3]; [8]
  Rice Seedling Injury (%): 0%
[3]; [9]
  Rice Seedling Injury (%): 10%
[3]; [10]
  Rice Seedling Injury (%): 0%
[3]; [11]
  Rice Seedling Injury (%): 0%
[3]; [12]
  Rice Seedling Injury (%): 10%
[3]; [13]
  Rice Seedling Injury (%): 20%
[3]; [14]
  Rice Seedling Injury (%): 10%
[3]; [15]
  Rice Seedling Injury (%): 40%
[3]; [16]
  Rice Seedling Injury (%): 15%
[3]; [17]
  Rice Seedling Injury (%): 10%
[3]; [18]
  Rice Seedling Injury (%): 20%
[3]; [19]
  Rice Seedling Injury (%): 15%
[3]; [20]
  Rice Seedling Injury (%): 10%
[3]; [21]
  Rice Seedling Injury (%): 30%
[3]; [22]
  Rice Seedling Injury (%): 15%
[3]; [23]
  Rice Seedling Injury (%): 5%
[3]; [24]
  Rice Seedling Injury (%): 25%
[3]; infant vs ordinary
  rice toxicity, infant vs ordinary seedlings: No difference
[3]; preemergence treatments vs later
  rice toxicity, preemergence vs later treatments: somewhat more toxic to rice
[4]; [7]
  % Weed Control (Ea): 100%
[4]; [8]
  % Weed Control (Ea): 100%
[4]; [9]
  % Weed Control (Ea): 100%
[4]; [10]
  % Weed Control (Ea): 100%
[4]; [11]
  % Weed Control (Ea): 100%
[4]; [12]
  % Weed Control (Ea): 100%
[4]; [13]
  % Weed Control (Ea): 100%
[4]; [14]
  % Weed Control (Ea): 100%
[4]; [15]
  % Weed Control (Ea): 100%
[4]; [16]
  % Weed Control (Ea): 100%
[4]; [17]
  % Weed Control (Ea): 100%
[4]; [18]
  % Weed Control (Ea): 100%
[4]; [19]
  % Weed Control (Ea): 100%
[4]; [20]
  % Weed Control (Ea): 100%
[4]; [21]
  % Weed Control (Ea): 100%
[4]; [22]
  % Weed Control (Ea): 100%
[4]; [23]
  % Weed Control (Ea): 100%
[4]; [24]
  % Weed Control (Ea): 100%
[5]; [7]
  % Weed Control (Ec): 100%
[5]; [8]
  % Weed Control (Ec): 100%
[5]; [9]
  % Weed Control (Ec): 100%
[5]; [10]
  % Weed Control (Ec): 100%
[5]; [11]
  % Weed Control (Ec): 100%
[5]; [12]
  % Weed Control (Ec): 100%
[5]; [13]
  % Weed Control (Ec): 100%
[5]; [14]
  % Weed Control (Ec): 100%
[5]; [15]
  % Weed Control (Ec): 100%
[5]; [16]
  % Weed Control (Ec): 100%
[5]; [17]
  % Weed Control (Ec): 100%
[5]; [18]
  % Weed Control (Ec): 100%
[5]; [19]
  % Weed Control (Ec): 100%
[5]; [20]
  % Weed Control (Ec): 100%
[5]; [21]
  % Weed Control (Ec): 100%
[5]; [22]
  % Weed Control (Ec): 100%
[5]; [23]
  % Weed Control (Ec): 95%
[5]; [24]
  % Weed Control (Ec): 100%
Cd (Cyperus difformis); [7]
  % Weed Control (Cd): 100%
Cd (Cyperus difformis); [8]
  % Weed Control (Cd): 100%
Cd (Cyperus difformis); [9]
  % Weed Control (Cd): 100%
Cd (Cyperus difformis); [10]
  % Weed Control (Cd): 100%
Cd (Cyperus difformis); [11]
  % Weed Control (Cd): 100%
Cd (Cyperus difformis); [12]
  % Weed Control (Cd): 100%
Cd (Cyperus difformis); [13]
  % Weed Control (Cd): 100%
Cd (Cyperus difformis); [14]
  % Weed Control (Cd): 100%
Cd (Cyperus difformis); [15]
  % Weed Control (Cd): 100%
Cd (Cyperus difformis); [16]
  % Weed Control (Cd): 100%
Cd (Cyperus difformis); [17]
  % Weed Control (Cd): 100%
Cd (Cyperus difformis); [18]
  % Weed Control (Cd): 100%
Cd (Cyperus difformis); [19]
  % Weed Control (Cd): 100%
Cd (Cyperus difformis); [20]
  % Weed Control (Cd): 100%
Cd (Cyperus difformis); [21]
  % Weed Control (Cd): 100%
Cd (Cyperus difformis); [22]
  % Weed Control (Cd): 100%
Cd (Cyperus difformis); [23]
  % Weed Control (Cd): 100%
Cd (Cyperus difformis); [24]
  % Weed Control (Cd): 100%
Sh (Scirpus hotarui); infant, 1.0 kg/ha, 3 DAT
  % Weed Control (Sh): 100%
Sh (Scirpus hotarui); infant, 1.0 kg/ha, 7 DAT
  % Weed Control (Sh): 100%
Sh (Scirpus hotarui); infant, 1.0 kg/ha, -2 DAT
  % Weed Control (Sh): 100%
Sh (Scirpus hotarui); infant, .5 kg/ha, 3 DAT
  % Weed Control (Sh): 100%
Sh (Scirpus hotarui); infant, .5 kg/ha, 7 DAT
  % Weed Control (Sh): 100%
Sh (Scirpus hotarui); infant, .5 kg/ha, -2 DAT
  % Weed Control (Sh): 100%
Sh (Scirpus hotarui); ordinary, 1.0 kg/ha, 3 DAT
  % Weed Control (Sh): 100%
Sh (Scirpus hotarui); ordinary, 1.0 kg/ha, 7 DAT
  % Weed Control (Sh): 100%
Sh (Scirpus hotarui); ordinary, 1.0 kg/ha, -2 DAT
  % Weed Control (Sh): 100%
Sh (Scirpus hotarui); ordinary, .5 kg/ha, 3 DAT
  % Weed Control (Sh): 100%
Sh (Scirpus hotarui); ordinary, .5 kg/ha, 7 DAT
  % Weed Control (Sh): 100%
Sh (Scirpus hotarui); ordinary, .5 kg/ha, -2 DAT
  % Weed Control (Sh): 100%
[6]; Early season, 1.0 kg/ha, 3 DAT
  % Weed Control (Obw): 100%
[6]; Early season, 1.0 kg/ha, 12 DAT
  % Weed Control (Obw): 50%
[6]; Early season, 1.0 kg/ha, -2 DAT
  % Weed Control (Obw): 100%
[6]; Early season, .5 kg/ha, 3 DAT
  % Weed Control (Obw): 100%
[6]; Early season, .5 kg/ha, 12 DAT
  % Weed Control (Obw): 100%
[6]; Early season, .5 kg/ha, -2 DAT
  % Weed Control (Obw): 100%
[6]; Normal season, 1.0 kg/ha, 3 DAT
  % Weed Control (Obw): 100%
[6]; Normal season, 1.0 kg/ha, 7 DAT
  % Weed Control (Obw): 100%
[6]; Normal season, 1.0 kg/ha, -2 DAT
  % Weed Control (Obw): 100%
[6]; Normal season, .5 kg/ha, 3 DAT
  % Weed Control (Obw): 100%
[6]; Normal season, .5 kg/ha, 7 DAT
  % Weed Control (Obw): 100%
[6]; Normal season, .5 kg/ha, -2 DAT
  % Weed Control (Obw): 100%
carp; equal concentration basis
  toxicity to carp relative to Herbicide B: about one-half
carp; taking expected use rate one-third of B
  toxicity in the field relative to Herbicide B: about one-sixth
